Experimental data: publication PMC8495692 (ACS Omega, 2021)
pIC50: −log10 of the molar value. Marks after values point to notes of the source that are not given here.

Legend:
[1] = target: human IRAK1 (Homo sapiens, UniProt P51617); assay: IRAK1 kinase assay; type: biochemical; details: for inhibition at 10 µM: read-out: % of kinase inhibition (mean), IRAK1, 10 μM compound
[2] = test system: human IRAK4; assay: IRAK4 kinase assay; type: biochemical; details: 10 μM compound; ATP 10 μM
[3] = test system: IRAK4; details: read-out: IC50 against IRAK4; cited from earlier work
[4] = test system: cells overexpressing IRAK1; assay: MTT cytotoxicity on cells overexpressing IRAK1; type: cell-based; details: Homo sapiens, read-out: IC50, toxicity on cells overexpressing IRAK1
[5] = test system: LPS-stimulated PMA-induced human THP-1 macrophages; assay: Cytokine production, CBA array beads with flow cytometry; type: cell-based; details: 1 μM, 24 h, compared to control DMSO
[6] = test system: IRAK1; details: read-out: IC50 against IRAK1; cited from earlier work

Chain of human IRAK1 (P51617 whole entry): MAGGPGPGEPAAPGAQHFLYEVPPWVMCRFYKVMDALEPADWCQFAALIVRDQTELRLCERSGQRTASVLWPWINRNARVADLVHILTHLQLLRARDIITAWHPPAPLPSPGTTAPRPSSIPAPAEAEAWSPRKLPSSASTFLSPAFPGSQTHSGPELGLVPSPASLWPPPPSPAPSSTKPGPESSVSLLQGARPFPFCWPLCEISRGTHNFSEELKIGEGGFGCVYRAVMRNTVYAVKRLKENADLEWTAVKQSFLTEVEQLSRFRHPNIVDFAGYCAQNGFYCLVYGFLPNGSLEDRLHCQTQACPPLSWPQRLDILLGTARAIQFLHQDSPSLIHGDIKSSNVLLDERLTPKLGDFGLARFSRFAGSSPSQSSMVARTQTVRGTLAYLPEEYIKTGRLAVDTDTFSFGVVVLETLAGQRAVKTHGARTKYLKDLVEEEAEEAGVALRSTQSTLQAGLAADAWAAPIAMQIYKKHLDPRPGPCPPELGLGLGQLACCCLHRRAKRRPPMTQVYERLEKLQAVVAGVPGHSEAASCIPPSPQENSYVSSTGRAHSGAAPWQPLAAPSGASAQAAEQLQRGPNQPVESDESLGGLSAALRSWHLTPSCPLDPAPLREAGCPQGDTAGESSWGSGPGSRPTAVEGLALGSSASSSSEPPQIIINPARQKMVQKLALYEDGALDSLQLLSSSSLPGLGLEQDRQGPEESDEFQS

inhibition at 10 µM ([1]; ATP 10 μM) | % of kinase inhibition (mean), IRAK4 [2] | pIC50 [1] | Compound | other results
15% | 4% | – | Oc1ccc(O)cc1 [hydroquinone] | –
– | – | – | C=CC(=O)Nc1cccc(C(=O)Nc2ccc(NC(=O)c3cccc(-c4ccn[nH]4)n3)cc2)c1 [JH-X-119-01] | pIC50 [3]: < 5.00
8% | 3% | – | CC(C)=CCC1=C(O)C(=O)c2ccccc2C1=O [lapachol, 2-hydroxy-3-(3-methyl-2-butenyl)-1,4-naphthoquinone] | –
– | 9% | 5.85 | Cc1cc(O)c2c(c1)C(=O)c1cc(O)cc(O)c1C2=O [emodin, 1,3,8-trihydroxy-6-methylanthraquinone] | –
– | 0% | 5.34 | CC(C)=CCC(O)C1=CC(=O)c2c(O)ccc(O)c2C1=O (stereo not drawn) [shikonin, 5,8-dihydroxy-2-(1-hydroxy-4-methyl-3-pentenyl)-1,4-naphthoquinone] | –
> 20% | 0% | 4.35 | CC1=CC(=O)c2ccccc2C1=O [menadione (Vitamin K3), menadione, reference compound] | % of kinase inhibition (mean), IRAK1 ([1]; 10 μM compound, ATP 10 μM): 28 ^a %
14% | 9% | – | CC1=C(C/C=C(\C)CCC[C@H](C)CCC[C@H](C)CCCC(C)C)C(=O)c2ccccc2C1=O [phylloquinone (Vitamin K1), phylloquinone, reference compound] | –
– | – | – | C1=C/COCc2cc(ccc2OCCN2CCCC2)Nc2nccc(n2)-c2cccc(c2)COC/1 [pacritinib] | pIC50 [6]: 8.22; pIC50 [3]: 6.75
5% | 0% | – | CC1=CC(=O)C(C(C)C)=CC1=O [thymoquinone, 2-isopropyl-5-methyl-1,4-benzoquinone] | –

Compound | inhibition at 10 µM ([1]; ATP 10 μM) | % of kinase inhibition (mean), IRAK4 [2] | pIC50 [1] | other results
CC1=CC(=O)c2c(O)cccc2C1=O [plumbagin, 5-hydroxy-2-methyl-1,4-naphthoquinone] | – | 0% | 5.20 | –
O=C1C=CC(=O)c2ccccc21 [1,4-naphthoquinone] | – | 10% | 6.04 | pIC50 [4]: > 5.00; IL-8, IL-1β, and IL-10 levels in supernatant ([5]; p-value < 0.01): most downregulated; levels of most of measured cytokines (IL-1β, TNF-α, IL-10, IL-6, IL-8, IL-12β) in supernatant ([5]; p-value < 0.05): significant decrease
O=C1C=CC(=O)c2c(O)cccc21 [juglone, 5-hydroxy-1,4-naphthoquinone] | 0% | 0% | – | –
O=C1C=CC(=O)C=C1 [1,4-benzoquinone] | 20% | 0% | – | –
